For one assay, the system named is R441A MtPMT. The format is cell-based, M. tuberculosis.

SMILES strings stand for the structures.

For the compound `[N-]=[N+]=[N-].[Na+]` [sodium azide], the “chemical complementation of inactive D74A mutant” value with D74A MtPMT is “ineffective”. The “chemical complementation of inactive D176A mutant” value with D176A MtPMT is given as “ineffective”.
On to `CC(=O)[O-].[Na+]` [sodium acetate], for which, in the assay on D74A MtPMT, the “chemical complementation of inactive D74A mutant” value is “ineffective”. Moreover, in the assay on D176A MtPMT, the “chemical complementation of inactive D176A mutant” value was “ineffective”.
`c1c[nH]cn1` [imidazole]: the “restored FasC mannosylation, level of the wild type MtPMT” value in the assay on R441A MtPMT was ~ 25 ± 5%.
The same measure, in the same setting: to `Cl.N=C(N)N` [guanidine chloride, guanidine hydrochloride] belongs ~ 25 ± 5%.

(Values after paper PMC12331936, “Structural Insights into the Protein Mannosyltransferase from Mycobacterium tuberculosis reveal a WW-Domain-Like Protein Motif in Bacteria” (Communications Biology, 2025).)
